This is an account of results in US20210228590A1, “TREATING INFLUENZA USING SUBSTITUTED POLYCYCLIC PYRIDONE DERIVATIVES AND PRODRUGS THEREOF” (priority 2018, published 2021).

The conditions of data set [1]: in vivo.
Data set [2] relates to influenza A virus A/PR/8/34. Nature of the data set: Mouse model for delayed treatment: virus titers in lungs. Particulars: for virus in lungs: days 8 and 10 post infection, treatment from 72 hours, limit of detection 1.50 log10 TCID50/ml. It counts as in vivo, BALB/c mice.
The conditions of data set [3]: rat, in vivo, po.
In data set [4] the test system is influenza A virus A/PR/8/34. Nature of the data set: Mouse model for delayed treatment, lethal infection: survival and body weight. It counts as in vivo, BALB/c mice.

With `CC(=O)Oc1c2n(ccc1=O)N([C@@H]1c3ccccc3SCc3c1ccc(F)c3F)[C@@H]1COCCN1C2=O` [II-4], in data set [1], the “BA(%)” value came out at 20.0%.
As to `COC(=O)OCOc1c2n(ccc1=O)N([C@@H]1c3ccccc3SCc3c1ccc(F)c3F)[C@@H]1COCCN1C2=O` [II-6, baloxavir marboxil], in data set [2] (BXM 1.5 and 15 mg/kg for 5 days from 72 hours post infection, days 4 and 6 post infection), the “virus titers in lung versus vehicle-treated group” value was “significantly reduced compared with those in the vehicle-treated group”. The “virus titer in lung versus OSP-treated group” value in data set [2] (BXM 1.5 and 15 mg/kg from 72 hours post infection, days 4 and 6 post infection) is recorded as “significantly lower than that in the group treated with 5 mg/kg of OSP”. In addition, the virus in lungs entry in data set [2] was “No virus was detected”. In addition, in data set [3], the “concentration of Compound II-6 in plasma samples” value is on record as “a determination limit or less”. In addition, the survival entry in data set [4] (BXM 15 mg/kg orally twice daily for 5 days from 24, 48, or 72 hours post infection, observed to day 28) was “all mice treated with 1.5 and 15 mg/kg of BXM survived”. Besides, the “survival time versus vehicle-treated group” value in data set [4] (BXM from 24, 48, 72, and 96 hours post infection, P<0.01 or P<0.001) was “Significant differences in survival time”. In addition, the “body weight change versus vehicle-treated group” value in data set [4] (BXM from 24, 48, 72, or 96 hours post infection) is “significantly less reduction of body weight compared with the vehicle-treated group”. For the same compound, in data set [4] (BXM from 24, 48, 72 or 96 hour post infection, on indicated days), the “body weight loss versus OSP-treated group” value is listed as “significantly less body weight loss than did the OSP-treated group”. The “survival time versus OSP-treated group” value in data set [4] (BXM given from 72 and 96 hours post infection, OSP 5 mg/kg) is reported as “significantly prolonged compared with that in OSP-treated group”.
`O=C1c2c(O)c(=O)ccn2N([C@@H]2c3ccccc3SCc3c2ccc(F)c3F)[C@@H]2COCCN12` [III-2, baloxavir acid]: in data set [1], the “BA(%)” value came to 4.2%.
For `CCOC(=O)C1=C[C@@H](OC(CC)CC)[C@H](NC(C)=O)[C@@H](N)C1` [OSP, Oseltamivir phosphate, reference compound], the “virus titers in lung versus vehicle-treated group” value in data set [2] (OSP 5 mg/kg from 72 hours post infection, day 4 post infection) is “Significant reduction in virus titers”. Further, the virus in lungs entry in data set [2] is “No virus was detected”. The “survival time versus vehicle-treated group” value in data set [4] (OSP 5 mg/kg twice daily for 5 days from 24 or 48 hours post infection) is “survived for a significant longer period than the vehicle-treated group”. In data set [4] (OSP 5 mg/kg twice daily for 5 days from 72 or 96 hours post infection), the “protection level (survival)” value is “protection level was decreased”. The “body weight loss versus control group” value in data set [4] (OSP from 24 and 48 hours post infection) was “Significant inhibitions in body weight loss”. Besides, the “body weight loss versus vehicle-treated group” value in data set [4] (OSP from 72 and 96 hours post infection) is recorded as “body weight loss comparable to the vehicle-treated group”.
